One block for each compound: values may come before it.
Experiments:
LORE [1] = target: T1, LORE (Arabidopsis thaliana, UniProt O64782); assay: PTI in Arabidopsis (biological assays, LORE dependence); type: cell-based; settings: for elicitor activity / PTI responses / early PTI signalling reactions: 5 μM, [Ca^2+]cyt and ROS; for elicitor activity: FIG. 3B-E, FIG. 6B; for PTI responses ([Ca^2+]cyt signalling, ROS production, defence gene induction, MAPK activation; ROS in LORE-GFP-expressing N. benthamiana): FAs 1-5 μM, compared to mc-3-OH-FAs, FIG. 2A-G; for PTI responses: FIG. 3A,B; for early PTI signalling reactions: short-term exposure, FIG. 4D-E
T1 construct: aequorin-expressing wild-type (Col-0^AEQ) or lore-1 mutant seedlings; endogenous in cells; host or cells: Arabidopsis thaliana Col-0 / Col-0^AEQ seedlings and leaf discs
T1 sequence (O64782 22-805): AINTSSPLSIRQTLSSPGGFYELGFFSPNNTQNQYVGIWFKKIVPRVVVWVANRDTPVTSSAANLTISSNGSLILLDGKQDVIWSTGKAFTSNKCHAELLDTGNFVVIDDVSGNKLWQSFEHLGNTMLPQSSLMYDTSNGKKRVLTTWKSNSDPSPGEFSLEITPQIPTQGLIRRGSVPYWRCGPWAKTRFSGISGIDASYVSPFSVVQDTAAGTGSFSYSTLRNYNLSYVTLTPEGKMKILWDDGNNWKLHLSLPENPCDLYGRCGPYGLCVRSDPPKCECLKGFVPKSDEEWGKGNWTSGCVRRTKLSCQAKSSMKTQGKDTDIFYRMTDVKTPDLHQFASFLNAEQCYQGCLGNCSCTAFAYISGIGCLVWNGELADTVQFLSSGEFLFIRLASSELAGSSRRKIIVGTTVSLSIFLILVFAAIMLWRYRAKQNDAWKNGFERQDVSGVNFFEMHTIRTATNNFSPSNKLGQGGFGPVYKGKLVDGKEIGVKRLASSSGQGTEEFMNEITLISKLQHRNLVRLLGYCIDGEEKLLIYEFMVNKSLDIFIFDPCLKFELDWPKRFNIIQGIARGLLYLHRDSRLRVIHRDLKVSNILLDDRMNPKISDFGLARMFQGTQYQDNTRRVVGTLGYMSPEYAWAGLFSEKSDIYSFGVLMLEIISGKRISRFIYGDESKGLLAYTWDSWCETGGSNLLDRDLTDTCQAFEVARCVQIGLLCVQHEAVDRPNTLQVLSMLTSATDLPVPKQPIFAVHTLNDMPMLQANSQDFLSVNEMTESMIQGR

LORE [2] = target: T1, LORE; assay: Aequorin luminescence measurements of [Ca^2+]cyt elevations in Arabidopsis seedlings; type: cell-based; settings: for elicitor activity ([Ca^2+]cyt response): 5 μM, Col-0^AEQ or lore-1 seedlings, FIG. 2H-J
Protocol: Aequorin luminescence measurements were performed essentially as described (Ranf et al., 2012). In short, 8- to 10-days-old liquid-grown apoaequorin-expressing seedlings were placed individually in 96-well plates in MP-dH2O containing 5-10 μM coelenterazine-h (p.j.k. GmbH) in the dark overnight. Luminescence was recorded by scanning 2 rows in 10 sec intervals using a Luminoskan Ascent 2.1 (Thermo Scientific). Remaining aequorin was discharged by addition of 150 μl 2 M CaCl2) with 20% EtOH per well. [Ca^2+]cyt concentrations were calculated as L/Lmax (luminescence counts per sec/total luminescence counts remaining).

AtFRK1 and AtNHL10 = assay: Gene expression analysis (quantitative PCR of defence genes); settings: 1 μM, four hours after elicitation, seedlings, FIG. 1G
AtMPK3 and AtMPK6 = assay: Immunoblot analysis of MAPK activation; type: cell-based, Arabidopsis thaliana; settings: 5 μM, seedlings, FIG. 1H
Protocol: MAPK activation was elicited in 14-days-old liquid-grown seedlings as described (Ranf et al., 2015) by adding MAMPs to the final concentrations indicated. […] Proteins were extracted in kinase extraction buffer containing 50 mM Tris/HCl pH 7.5, 100 mM NaCl, 20 mM EGTA, 30 mM beta-glycerophosphate, 30 mM 4-p-Nitrophenylphosphate, 4 mM NaF, 4 mM Na3VO4, 4 mM Na2MoO4, 10 mM DTT, 0.2% Tween 20, and 1× plant protease inhibitor cocktail P9599 (Sigma-Aldrich). […] total protein (according to Bradford Protein Assay, Bio-Rad) was separated by standard SDS polyacrylamide gel-electrophoresis (Mini-PROTEAN Tetra Cell, Bio-Rad) and blotted onto nitrocellulose membrane (Amersham™ Protran™ 0.2 μm NC, GE Healthcare) using a Trans-Blot® SD Semi-Dry Transfer Cell (Bio-Rad). Membranes were blocked in Protein-Free TBS Blocking Buffer (Pierce™) and immunostained with anti-phospho-MPK antibody (anti-phospho-p44/42-ERK, 1:1000, Cell Signaling Technology #9101) and anti-rabbit-IgG-peroxidase conjugate (A9169, 1:50000, Sigma-Aldrich) using SuperSignal™ West Dura Extended Duration Substrate (Thermo Scientific). ECL chemiluminescence was detected using a Fusion SL camera (Vilber Lourmat). Membranes were stained with Amido black to assess equal protein loading.

Pst DC3000 = assay: Induced resistance assay in Arabidopsis plants; type: in vivo, Pseudomonas syringae pv. tomato; settings: FIG. 1J
Protocol: After two or three days Pst DC3000 was syringe infiltrated into leaves 4 and 5 of the pretreated plants at 1×10^5 CFU/ml. Bacterial growth in infected leaves was determined 4 days later as described (Vlot et al., 2008). Statistical analysis (one-way analysis of variance, ANOVA, with Tukey's multiple comparison post-test) was applied separately for wild type and mutant plants using GraphPad Prism 7.0.

LORE [3] = target: T1, LORE; assay: ROS detection in Arabidopsis leaves (leaf discs); type: cell-based; settings: 5 μM, leaf discs Col-0 or lore-5, FIG. 2D
Protocol: ROS production was monitored as described (Ranf et al., 2015) in 3 mm leaf discs from 6-8 weeks-old soil-grown plants in 100 μl 5 μM L-012 (WAKO chemicals) and 2 μg/ml horseradish peroxidase (Type II, Roche) in MP-dH2O. For experiments including 4-OH-10:0 (19) and 5-OH-10:0 (20), 10 mM Tris pH 8 was added to the L-012/HRP mix. Luminescence was recorded as relative light units (RLU) in 1 min intervals using a Luminoskan Ascent 2.1 (Thermo Scientific) or a Tecan F200. After 10 min background reading, elicitors were added to the final concentrations indicated and luminescence readings continued over 45-60 min. Data are depicted after normalization to average ROS levels 5 min before elicitor application and subtraction of water or MeOH controls that were included for each genotype on the same plate.

[4] = sample conc. used for biological assays 1 μM-5 μM (mostly)
[5] = sample conc. used for biological assays 5 μM
[6] = wild-type Arabidopsis plants pre-treated with 10 μM, titre at 4 dpi

SMILES: CCCCCCCC(O)CC(=O)O (racemic) [Compound 1, 3-hydroxydecanoic acid]
elicitor activity (LORE [1]): strongest elicitor activity
LORE-dependent (LORE [1]; [4]): Yes
PTI in Arabidopsis (LORE [1]; [4]): Yes
LORE-dependent (LORE [1]; [5]): Yes
PTI in Arabidopsis (LORE [1]; [5]): Yes
[Ca^2+]cyt or ROS signals (LORE [1]; subsequent application after mc-3-OH-FA-depleted LPS, FIG. 4A-C, FIG. 5): typical [Ca^2+]cyt or ROS signals were induced
[Ca^2+]cyt elevations (LORE [2]; Col-0^AEQ seedlings, different concentrations (nanomolar to micromolar range), FIG. 1C): sufficient to elicit [Ca^2+]cyt elevations
transcript accumulation of PTI response genes AtFRK1 and AtNHL10 (AtFRK1 and AtNHL10): induced transcript accumulation
phosphorylation of AtMPK3 and AtMPK6 (AtMPK3 and AtMPK6): phosphorylation of mitogen-activated protein kinases (MAPK), AtMPK3 and AtMPK6
systemic resistance to infection with Pst DC3000 (Pst DC3000; lore-1 mutant plants pre-treated with 10 μM): systemic resistance was not activated
systemic resistance to infection with Pst DC3000 (Pst DC3000; [6]): more resistant to subsequent infection with virulent Pst DC3000

SMILES: CCCCCCC(O)CCC(=O)O (stereo not drawn) [Compound 19, 4-hydroxydecanoic acid]
LORE-dependent ROS production (LORE [3]): did not elicit LORE-dependent ROS production

SMILES: CCCCCC(O)CCCC(=O)O (stereo not drawn) [Compound 20, 5-hydroxydecanoic acid]
LORE-dependent ROS production (LORE [3]): did not elicit LORE-dependent ROS production

SMILES: CCCCCCCC(=O)CC(=O)O [Compound 23, 3-oxodecanoic acid]
elicitor activity ([Ca^2+]cyt response) (LORE [2]): induced a moderate LORE-dependent [Ca^2+]cyt response

SMILES: CCCCCCCC(CC(=O)O)OC(C)=O (stereo not drawn) [Compound 25, 3-acetoxydecanoic acid]
elicitor activity ([Ca^2+]cyt response) (LORE [2]): abolished elicitor activity

SMILES: CCCCCCCC(O)CC (stereo not drawn) [Compound 27, decan-3-ol]
PTI responses (LORE [1]): neither 3-decanol nor 1,3-decandiol elicited PTI responses

SMILES: CCCCCCCC(O)CCO (stereo not drawn) [Compound 28, decane-1,3-diol]
PTI responses (LORE [1]): neither 3-decanol nor 1,3-decandiol elicited PTI responses

SMILES: CCCCCCC[C@@H](O)CC(=O)O [Compound 44, (R)-3-hydroxydecanoic acid]
immune signalling ([Ca^2+]cyt elevations) (LORE [2]; different concentrations, Arabidopsis seedlings, FIG. 6A): induced stronger immune signalling than (S)-3-OH—C10:0 (45)

Further lines, with some results ahead:

PTI signalling (LORE [1]; FIG. 1D-H): did not induce PTI signalling
SMILES: CCCCCCCCCCCC(O)CC(=O)O (racemic) [Compound 7, 3-hydroxytetradecanoic acid]
systemic resistance to infection with Pst DC3000 (Pst DC3000; [6]): did not establish systemic resistance to bacterial infection

PTI in Arabidopsis (LORE [1]; [5]): No
SMILES: CCCCCCCCCC(=O)NC1CCOC1=O (racemic) [Compound 43, N-Decanoyl-DL- homoserine lactone]

PTI responses ([Ca^2+]cyt signalling, ROS production, defence gene induction, MAPK activation; ROS in LORE-GFP-expressing N. benthamiana) (LORE [1]): weak and independent of LORE
SMILES: CCCCCCC/C=C\C(=O)O [Compound 17, (Z)-dec-2-enoic acid]

PTI responses ([Ca^2+]cyt signalling, ROS production, defence gene induction, MAPK activation; ROS in LORE-GFP-expressing N. benthamiana) (LORE [1]): weak and independent of LORE
SMILES: CCCCCCC/C=C/C(=O)O [Compound 18, (E)-dec-2-enoic acid]

elicitor activity ([Ca^2+]cyt response) (LORE [2]): abolished elicitor activity
SMILES: CCCCCCCC(Cl)CC(=O)OC (stereo not drawn) [Compound 22, methyl 3-chlorodecanoate]

elicitor activity ([Ca^2+]cyt response) (LORE [2]): abolished elicitor activity
SMILES: CCCCCCCC(CC(=O)O)OC (stereo not drawn) [Compound 24, 3-methoxydecanoic acid]

elicitor activity (LORE [1]): inactive
SMILES: CCCCCCCC(O)CC(=O)OC(C)(C)C (stereo not drawn) [Compound 30, tert-butyl-3-hydroxydecanoate]

PTI in Arabidopsis (LORE [1]; [5]): No
SMILES: CCCCCCCC(O)CC(=O)N[C@H]1CCOC1=O (stereo partly drawn) [Compound 41, N-(3-Hydroxydecanoyl)-L-homoserine lactone]
early PTI signalling reactions (LORE [1]): did not elicit significant early PTI signalling reactions

PTI in Arabidopsis (LORE [1]; [5]): No
SMILES: CCCCCCCC(=O)CC(=O)N[C@H]1CCOC1=O [Compound 42, N-(3-Oxodecanoyl)-L-homoserine lactone]
early PTI signalling reactions (LORE [1]): did not elicit significant early PTI signalling reactions
